For assay [1], the system named is rat cerebral synaptosomes. The assay is described as follows: Basal and 4-aminopyridine-evoked glutamate release from synaptosomes (CE-LIF). The assay is classed as cell-based. To be noted: 10 mM DIMEB, 33 mM HPBCD, 26 mM RAMEA, 85 mM HPACD; 40 min exposure; 1 mM 4-AP, 8 min. How it is done:
After thawing and centrifugation, the cryopreserved synaptosomes were resuspended in isotonic HEPES-glucose buffer. Synaptosomal suspensions corresponding to 10 mg of synaptosomes were centrifuged to an 8-well strip plate (15 min, 2500× g, 4 °C) and the supernatant was discarded. Vehicle-treated (control) and CD-treated synaptosomes were incubated in 200 μL HEPES-glucose buffer with or without CDs, respectively, for 40 min at 37 °C. […] After incubation, the supernatant was replaced with fresh HEPES-glucose buffer containing 40 µM DL-TBOA (a competitive, non-transportable blocker of excitatory amino acid transporters that inhibits the reuptake of released glutamate) and equilibrated for 2 × 10 min at 37 °C with buffer replacement. After equilibration, the buffer was replaced by fresh HEPES-glucose buffer in the case of unstimulated groups. […] Following stimulation, aliquots were taken from the buffer at 8 min and stored at −20 °C until CE analysis. The glutamate content of the aliquots was analyzed by a capillary electrophoresis-laser induced fluorescence method developed in our laboratory. Briefly, samples were subjected to derivatization with NBD-F (1 mg/mL final concentration) in 20 mM borate buffer, pH 8.5 for 20 min at 65 °C. […] Glutamate release was normalized to the baseline release from the vehicle-treated, unstimulated synaptosomes. Data were analyzed by GraphPad Prism 8 (GraphPad Software, La Jolla, CA, USA). Concentration–response curves were constructed by the nonlinear regression method. One-way ANOVA followed by Bonferroni’s post hoc test was used for the data analysis in the case of the glutamate release experiments. All data are presented as means ± SEM of at least three parallel measurements. Differences were considered significant if p < 0.05.

Assay [2] deals with GM2 and GM3 immunoreactivity. Further details: method as in PMID 27231706. To be noted: NPC mouse model; cited from earlier work.
For assay [3], the system named is cell model of GM1 gangliosidosis. Further details: method as in doi:10.1007/s10847-018-0835-8. To be noted: immunofluorescence staining; cited from earlier work.

The source of these data is article PMC9409351, “Differential Ganglioside and Cholesterol Depletion by Various Cyclodextrin Derivatives and Their Effect on Synaptosomal Glutamate Release” (International Journal of Molecular Sciences, 2022).

As to `COC[C@H]1O[C@@H]2O[C@H]3[C@H](O)[C@@H](OC)[C@@H](O[C@H]4[C@H](O)[C@@H](OC)[C@@H](O[C@H]5[C@H](O)[C@@H](OC)[C@@H](O[C@H]6[C@H](O)[C@@H](OC)[C@@H](O[C@H]7[C@H](O)[C@@H](OC)[C@@H](O[C@H]8[C@H](O)[C@@H](OC)[C@@H](O[C@H]1[C@H](O)[C@H]2OC)O[C@@H]8COC)O[C@@H]7COC)O[C@@H]6COC)O[C@@H]5COC)O[C@@H]4COC)O[C@@H]3COC` [DIMEB, heptakis(2,6-di-O-methyl)-beta-cyclodextrin], the “4-AP-evoked (stimulated) glutamate release” value (shortened to “4-AP-evoked”) in assay [1] is recorded as “not detected”.

For `CC(O)COC[C@H]1O[C@@H]2O[C@H]3[C@H](O)[C@@H](O)[C@@H](O[C@H]4[C@H](O)[C@@H](O)[C@@H](O[C@H]5[C@H](O)[C@@H](O)[C@@H](O[C@H]6[C@H](O)[C@@H](O)[C@@H](O[C@H]7[C@H](O)[C@@H](O)[C@@H](O[C@H]8[C@H](O)[C@@H](O)[C@@H](O[C@H]1[C@H](O)[C@H]2O)O[C@@H]8COCC(C)O)O[C@@H]7COCC(C)O)O[C@@H]6COCC(C)O)O[C@@H]5COCC(C)O)O[C@@H]4COCC(C)O)O[C@@H]3COCC(C)O` (stereo partly drawn) [HPBCD, (2-hydroxypropyl)-beta-cyclodextrin], the “4-AP-evoked” value in assay [1] is on record as “still evoked glutamate release”. Besides, in assay [2], the “Accumulation of GM2 and GM3 immunoreactivity” value is “reduces the accumulation of GM2 and GM3 immunoreactivity”.

For “(2-hydroxypropyl)-alpha-cyclodextrin [HPACD]”, the “4-AP-evoked” value in assay [1] is “not detected”. Moreover, in assay [2], the “Accumulation of GM2 and GM3 immunoreactivity” value was “much less effective compared to HPBCD”. Besides, the “Lysosomal accumulation of GM1” value in assay [3] is “reduced lysosomal accumulation of GM1”.

“randomly methylated alpha-cyclodextrin [RAMEA]”: the “4-AP-evoked” value in assay [1] was “not detected”.
